The values that follow come from patent US20110237499A1, “HYBRID TRIPYRROLE-OCTAARGININE COMPOUNDS AND THEIR USE AS MEDICAMENT IN THE TREATMENT OF CANCER AND MICROBIAL ILLNESSES” (priority 2008, published 2011).

Assay [1] deals with HeLa cells. Put plainly: Cellular internalization assay in live HeLa cells (fluorescence microscopy). The format is cell-based. The procedure: The internalization assays were performed in live HeLa cells.
The internalization assays were performed in live HeLa cells, recording the fluorescence images after 30 min, 90 min and 3 h.

Assay [2] concerns HeLa 229 cells. Briefly: cells. Particulars: 48 hours incubation. Format: cell-based. The procedure:
Preliminary cytotoxicity studies have been performed using HeLa 229 cells, to verify the possible effect of the presence of octaarginine chain on the biological activity. These studies have been performed following an incubation during 48 hours and they were later evaluated by cell staining by crystal violet and later acetylation.

Square brackets hold non-standard residues; d marks the D form. Peptide text beside a SMILES is read from it. * marks the point of attachment. FITC = O=C1OC2(c3ccc(O)cc3Oc3cc(O)ccc32)c2ccc(NC(=S)*)cc21; Ahx = NCCCCCC(=O)O

Regarding `N=C(N)NCCC[C@H](NC(=O)[C@H](CCCNC(=N)N)NC(=O)[C@H](CCCNC(=N)N)NC(=O)[C@H](CCCNC(=N)N)NC(=O)[C@H](CCCNC(=N)N)NC(=O)[C@H](CCCNC(=N)N)NC(=O)[C@H](CCCNC(=N)N)NC(=O)[C@H](CCCNC(=N)N)NC(=O)CCCCCNC(=O)[C@H](CCCCN)NC(=O)CCCCCNC(=S)Nc1ccc2c(c1)C(=O)OC21c2ccc(O)cc2Oc2cc(O)ccc21)C(N)=O` [1B] ({FITC-Ahx}-K[Ahx]RRRRRRRR-NH2), in assay [1] (images after 30 min, 90 min and 3 h), the “extent of internalization (intracellular fluorescence)” value is recorded as “the fluorescence is intense”. In assay [1] (incubation 90 min at 37° C., FIG. 2), the “intracellular localization of the fluorescence signal” value was “exclusively localized in the cytoplasm”. The “% Inhibition of the cellular growth” value in assay [2] (concentration 5.87 μM) worked out at 1 ± 2%.
Turning to `CC(=O)Nc1c[nH]c(C(=O)Nc2cc(C(=O)Nc3cc(C(=O)NCCCN(C)C)n(C)c3)n(C)c2)c1` [compound 9], in assay [2] (Homo sapiens, HeLa 229, concentration 176.5 μM, read-out: % Inhibition of the cellular growth), the inhibition at 176.5 µM stood at 4 ± 3%.
